According to patent US20260232706A1, “1H-PYRAZOLE ANALOGUES AND METHODS AND USES THEREOF” (University of Manitoba, priority 2022, published 2026):

Legend:
[1] = system: WG37R mice; experiment: 120-day chronic toxicity assessment in WG37R mice; type: in vivo; details: 10 mg/kg/day IP daily for 120 days
Procedure: The WG37R mice were randomly assigned to 2 groups: For the second set of the experiment, a total of 6 animals per group (3 male and 3 female) were used in the study. Group 3: Sham treatment 1 (1:20 DMSO/PBS) and Group 4: NS-1-2 (10 mg/kg body weight). According to requirement of acute toxicity study, 6-10 animals should be used to evaluate the effect of a substance. However, as the new analogues are structurally similar to Edaravone, having a single-dose safety profile of 450 mg/kg, the mortality of the Edaravone analogues at a dose of 10 mg/kg body weight/day was not expected. Considering the above facts, for the present acute study, the proposed minimum number of animals was 6 per group. Morphological alterations, histological changes, and mean body weight assessments for whole set of animals, for both the WG37R control groups (N=5; 1:20, DMSO:PBS) and WG37R treated groups (N=6; NS-1-2; 10 mg/kg bodyweight) were assessed during the 120-day chronic toxicity assessment, by giving daily of 120 IP injection to the mouse at 3 months of age. Only one male mice from group 3 (control) was terminated unexpectedly, and was likely due to an accidental error in injection (discussed with Central Animal Care Services, veterinarians and staff). IP injections may be difficult because of the aggressiveness of mice (particularly the male mice, during physical restraint). […]

[2] = system: WG37R mice; experiment: 14-day acute toxicity assessment in WG37R mice; type: in vivo; details: for H&E histology compared with control mice / signs of overt degeneration, inflammation and necrosis in examined tissues: single IP 10 mg/kg
Procedure: The WG37R mice were randomly assigned to 2 groups: For the first set of the experiment, a total of 6 animals per group (3 male and 3 female) were used in the study. Group 1: Sham treatment 1 (1:20 DMSO/PBS) and Group 2: NS-1-2 (10 mg/kg body weight). According to requirement of acute toxicity study, 6-10 animals should be used to evaluate the effect of a substance. However, as the new analogues are structurally similar to Edaravone, having a single-dose safety profile of 450 mg/kg, the mortality of the Edaravone analogues at a dose of 10 mg/kg body weight/day was not expected. Considering the above facts, for the present acute study, the minimum number of animals was 6 per group. Morphological alterations, histological changes, and mean body weight assessments for whole set of animals, for both the WG37R control groups (N=6; 1:20, DMSO:PBS) and WG37R treated groups (N=6; NS-1-2; 10 mg/kg bodyweight) were assessed during the 14-day acute toxicity assessment, by giving a single IP injection to the mouse at 2 months of age (see further detail in (iia) below.
For intraperitoneal administration, about 1:20 of DMSO/PBS, at a pH of about 7.4 was used for the suspension of NS-1-2 test substance. Edaravone was dissolved in about 1 mL of about 1 mol/L NaOH and adjusted to about pH 7.4 by adding about 1 mol/L HCl, and then diluted in saline. A volume of about 400 μl from final reconstituted solution was aliquoted and stored in about −80° C., until further use. For acute toxicity experiments, a single dose of about 10 mg/kg bodyweight of NS-1-2 was intraperitoneally injected to group 2, WG37R mice model at the age of 2 months. The WG37R mice in the group 1 received an injection of equal volume of (about 1:20; DMSO:PBS) instead. For chronic toxicity experiments, 120 daily doses of about 10 mg/kg bodyweight of NS-1-2 was intraperitoneally injected to group 4, WG37R mice model at the age of 3 months for 120 days, until the age of 7 months. The WG37R mice in the group 3 received an injection of equal volume of (about 1:20; DMSO:PBS) instead.
Wild type (WT) G37R mice received a single dose (about 0.2 mls) IP injection of Sham suspended in (about 1:20; DMSO:PBS) and a single dose of about 10 mg/kg bodyweight (about 0.2 mls) IP injection of NS-1-2 suspended in about 1:20; DMSO:PBS at the age of 2 months. […] At the experimental endpoint, the mice were first deeply anesthetized with a mixture of about 20% v/v isoflurane/propylene glycol (about 1 ml of the mixture per about 500 ml of bell jar space, University of Manitoba animal care SOP A003) and than exsanguination was done by cutting the animal's right atrium followed by an intracardiac perfusion with about 0.9% NaCl. During perfusion, syringe barrel nosecone was used for prolonged anesthesia. Cardiac perfusion was followed by perfusion with about 4% paraformaldehyde for histology (H&E staining) analysis. Mouse tissues (brain, heart, spinal cord, kidney, liver, muscle, lung, and spleen) were fixed for about 48 h in about 4% buffered formalin at about 4° C. Only the spinal cord was processed after about 24 h to remove the spine and again fixed for about another 24 h. Samples were processed and embedded into paraffin blocks at the Histomorphology and Ultrastructural Imaging platform, Dept. of Human Anatomy and Cell Science, University of Manitoba. Briefly, the embedded tissues were cut into about 5 μm thickness, mounted on super frost plus slides and dried overnight at about 37° C. Slides were deparaffinized in about 2 changes of xylene and rehydrated in descending alcohols (about 2 changes of about 100% Ethanol and about 2 changes of about 95% Ethanol) and tap water. Slides were stained with Harris Haematoxylin followed by differentiation with acid alcohol. After rinsing in tap water, saturated lithium carbonate was used for Bluing the nucleus. After that the slides were rinsed in tap water and counter stained with eosin. […]

[3] = system: neuroblastoma-spinal cord hybrid NSC-34 cells; experiment: Neuroprotective effect/cell viability analysis in NSC-34 cells against H2O2 induced oxidative stress; type: cell-based; details: prophylactic treatment, 250 μM H2O2, FIG. 7A
[4] = single 10 mg/kg IP dose, 2 weeks monitoring

Cc1cc(B2OC(C)(C)C(C)(C)O2)n(-c2ccccc2)n1 [NS-1-2, 3-methyl-5-(4,4,5,5-tetramethyl-1,3,2-dioxaborolan-2-yl)-1-phenyl1H-pyrazole]
clinical signs of toxicity compared to vehicle-treated mice [1]: no clinical signs of toxicity | tolerability [1]: seemingly tolerated | H&E histology compared with control mice ([2]; G37RWT female mice, FIG. 13): no significant differences with respect to control mice | signs of overt degeneration, inflammation and necrosis in examined tissues ([2]; G37RWT female mice, FIG. 13): no signs of overt degeneration, inflammation and necrosis | H&E histology compared with control mice ([2]; G37RWT male mice, FIG. 12): no significant differences with respect to control mice | signs of overt degeneration, inflammation and necrosis in examined tissues ([2]; G37RWT male mice, FIG. 12): no signs of overt degeneration, inflammation and necrosis | changes in body weight ([2]; acute treatment, 10 mg/kg, FIG. 10): did not induce any abnormal changes in the body weight | daily general observations [2, 4]: normal appearance, normal general behaviour with well-conditioned body condition | treatment-related deaths [2, 4]: No acute treatment-related deaths | protection from loss of cell viability induced by H2O2 [3]: protected NSC-34 cells from loss of cell viability
